Holding throughout (assay): Eurofins kinase panel
Common to all, as to format: biochemical
Details in all cases: read-out: Inhibition rate (%)

In assay [1] the target is T1, CDK7/cyclinH/MAT1(h) (Homo sapiens, UniProt P50613).
T1 construct: purchased Eurofins (KinaseProfiler)

In assay [2] the target is T2, PASK(h) (Homo sapiens, UniProt Q96RG2).
T2 construct: purchased Eurofins (KinaseProfiler)

In assay [3] the target is T3, TAO1(h) (Homo sapiens, UniProt Q7L7X3).
T3 construct: purchased Eurofins (KinaseProfiler)
T3 sequence (Q7L7X3 1-1001): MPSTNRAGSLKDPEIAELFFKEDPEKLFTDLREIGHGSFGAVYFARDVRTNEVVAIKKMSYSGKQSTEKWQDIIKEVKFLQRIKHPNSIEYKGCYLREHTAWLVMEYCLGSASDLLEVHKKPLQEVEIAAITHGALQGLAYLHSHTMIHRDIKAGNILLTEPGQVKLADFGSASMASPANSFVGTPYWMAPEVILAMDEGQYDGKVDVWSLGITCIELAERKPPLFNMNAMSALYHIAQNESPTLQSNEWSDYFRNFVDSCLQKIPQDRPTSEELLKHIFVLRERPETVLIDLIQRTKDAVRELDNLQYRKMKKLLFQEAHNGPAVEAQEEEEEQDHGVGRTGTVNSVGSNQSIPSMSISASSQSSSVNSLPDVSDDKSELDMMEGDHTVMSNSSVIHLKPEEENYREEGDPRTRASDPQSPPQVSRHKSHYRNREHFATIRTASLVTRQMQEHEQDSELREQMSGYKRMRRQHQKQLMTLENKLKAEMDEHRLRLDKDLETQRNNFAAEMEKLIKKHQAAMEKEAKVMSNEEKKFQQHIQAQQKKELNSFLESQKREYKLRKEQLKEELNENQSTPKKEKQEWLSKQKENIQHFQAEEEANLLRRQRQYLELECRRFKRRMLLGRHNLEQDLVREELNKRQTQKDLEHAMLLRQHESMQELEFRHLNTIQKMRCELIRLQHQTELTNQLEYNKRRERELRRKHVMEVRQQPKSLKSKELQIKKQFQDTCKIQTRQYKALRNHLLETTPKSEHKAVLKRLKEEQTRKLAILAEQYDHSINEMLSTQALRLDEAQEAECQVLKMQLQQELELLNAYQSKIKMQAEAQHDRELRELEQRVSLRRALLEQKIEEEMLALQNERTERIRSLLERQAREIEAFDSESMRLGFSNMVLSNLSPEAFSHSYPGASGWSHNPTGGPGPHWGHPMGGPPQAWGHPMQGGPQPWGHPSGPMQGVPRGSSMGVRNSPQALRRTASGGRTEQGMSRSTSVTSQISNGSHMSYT

Assay [4] concerns the target T4, SGK3(h) (Homo sapiens, UniProt Q96BR1).
T4 construct: purchased Eurofins (KinaseProfiler)
T4 sequence (Q96BR1 1-496): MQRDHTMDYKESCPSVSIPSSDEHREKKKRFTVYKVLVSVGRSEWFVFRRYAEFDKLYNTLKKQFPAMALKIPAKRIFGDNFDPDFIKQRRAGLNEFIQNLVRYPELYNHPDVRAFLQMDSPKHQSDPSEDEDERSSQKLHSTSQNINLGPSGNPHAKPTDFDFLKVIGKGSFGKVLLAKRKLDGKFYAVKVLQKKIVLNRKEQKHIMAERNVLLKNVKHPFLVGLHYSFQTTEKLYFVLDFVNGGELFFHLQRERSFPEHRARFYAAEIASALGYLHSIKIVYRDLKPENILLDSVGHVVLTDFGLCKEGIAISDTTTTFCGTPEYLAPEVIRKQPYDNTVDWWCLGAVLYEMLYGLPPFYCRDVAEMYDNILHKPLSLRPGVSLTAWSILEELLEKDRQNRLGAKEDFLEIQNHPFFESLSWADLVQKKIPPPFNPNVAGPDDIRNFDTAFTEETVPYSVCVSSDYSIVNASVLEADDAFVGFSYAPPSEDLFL

For assay [5], the target named is T5, CLK3(h) (Homo sapiens, UniProt P49761).
T5 construct: purchased Eurofins (KinaseProfiler)
T5 sequence (P49761 whole entry): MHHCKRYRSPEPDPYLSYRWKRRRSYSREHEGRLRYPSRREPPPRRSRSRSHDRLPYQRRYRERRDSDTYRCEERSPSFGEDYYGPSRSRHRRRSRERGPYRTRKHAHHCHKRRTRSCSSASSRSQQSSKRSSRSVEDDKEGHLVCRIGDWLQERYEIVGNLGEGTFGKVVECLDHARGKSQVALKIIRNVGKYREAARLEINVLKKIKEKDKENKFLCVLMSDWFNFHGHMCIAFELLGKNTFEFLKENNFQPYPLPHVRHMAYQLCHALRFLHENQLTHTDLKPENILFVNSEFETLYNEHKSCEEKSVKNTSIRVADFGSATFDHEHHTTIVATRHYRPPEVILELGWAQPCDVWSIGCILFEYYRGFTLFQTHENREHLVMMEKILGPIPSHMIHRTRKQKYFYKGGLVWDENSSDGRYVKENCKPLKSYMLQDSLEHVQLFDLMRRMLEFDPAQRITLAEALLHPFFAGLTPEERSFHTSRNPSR

The target of assay [6] is T6, CDK13/cyclinK(h) (Homo sapiens, UniProt Q14004).
T6 construct: purchased Eurofins (KinaseProfiler)
T6 sequence (Q14004 whole entry): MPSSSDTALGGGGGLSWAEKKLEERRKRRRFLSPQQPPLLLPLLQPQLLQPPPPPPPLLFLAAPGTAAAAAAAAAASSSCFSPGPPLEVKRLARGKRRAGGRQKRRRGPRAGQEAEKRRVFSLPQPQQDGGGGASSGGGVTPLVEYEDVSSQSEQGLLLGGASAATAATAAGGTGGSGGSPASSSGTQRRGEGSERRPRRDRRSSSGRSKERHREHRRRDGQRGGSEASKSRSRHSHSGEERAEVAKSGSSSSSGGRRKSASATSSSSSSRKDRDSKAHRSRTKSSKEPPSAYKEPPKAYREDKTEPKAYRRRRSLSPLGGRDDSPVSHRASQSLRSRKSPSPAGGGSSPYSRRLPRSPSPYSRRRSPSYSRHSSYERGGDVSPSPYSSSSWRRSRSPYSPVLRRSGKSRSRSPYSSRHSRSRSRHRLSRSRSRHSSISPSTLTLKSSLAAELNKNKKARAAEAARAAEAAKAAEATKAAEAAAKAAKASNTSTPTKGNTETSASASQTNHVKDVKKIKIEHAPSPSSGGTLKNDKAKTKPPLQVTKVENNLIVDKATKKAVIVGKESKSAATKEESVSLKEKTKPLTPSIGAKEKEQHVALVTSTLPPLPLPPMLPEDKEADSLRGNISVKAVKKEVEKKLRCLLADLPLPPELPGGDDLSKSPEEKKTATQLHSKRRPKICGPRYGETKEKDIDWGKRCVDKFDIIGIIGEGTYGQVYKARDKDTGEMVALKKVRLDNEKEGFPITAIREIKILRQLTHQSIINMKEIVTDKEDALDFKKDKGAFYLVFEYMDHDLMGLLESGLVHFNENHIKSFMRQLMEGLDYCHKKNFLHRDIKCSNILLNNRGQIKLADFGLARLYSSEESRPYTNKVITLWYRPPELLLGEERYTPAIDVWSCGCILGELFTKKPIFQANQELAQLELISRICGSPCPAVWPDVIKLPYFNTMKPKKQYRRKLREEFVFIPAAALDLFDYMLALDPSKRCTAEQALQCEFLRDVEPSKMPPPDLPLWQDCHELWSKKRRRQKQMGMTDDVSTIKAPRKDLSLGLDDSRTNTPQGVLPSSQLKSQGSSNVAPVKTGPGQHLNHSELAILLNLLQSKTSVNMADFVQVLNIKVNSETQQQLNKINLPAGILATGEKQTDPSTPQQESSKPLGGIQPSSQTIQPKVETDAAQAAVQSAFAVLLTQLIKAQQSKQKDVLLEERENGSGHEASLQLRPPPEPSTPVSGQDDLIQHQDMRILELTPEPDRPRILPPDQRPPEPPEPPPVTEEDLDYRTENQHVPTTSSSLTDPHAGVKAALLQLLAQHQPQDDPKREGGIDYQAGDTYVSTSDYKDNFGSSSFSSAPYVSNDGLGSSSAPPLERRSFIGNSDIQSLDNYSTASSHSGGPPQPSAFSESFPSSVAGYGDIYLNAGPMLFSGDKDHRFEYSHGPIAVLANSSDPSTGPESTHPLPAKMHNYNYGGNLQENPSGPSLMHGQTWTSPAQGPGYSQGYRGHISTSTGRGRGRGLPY
T6 sequence (O75909 whole entry partner): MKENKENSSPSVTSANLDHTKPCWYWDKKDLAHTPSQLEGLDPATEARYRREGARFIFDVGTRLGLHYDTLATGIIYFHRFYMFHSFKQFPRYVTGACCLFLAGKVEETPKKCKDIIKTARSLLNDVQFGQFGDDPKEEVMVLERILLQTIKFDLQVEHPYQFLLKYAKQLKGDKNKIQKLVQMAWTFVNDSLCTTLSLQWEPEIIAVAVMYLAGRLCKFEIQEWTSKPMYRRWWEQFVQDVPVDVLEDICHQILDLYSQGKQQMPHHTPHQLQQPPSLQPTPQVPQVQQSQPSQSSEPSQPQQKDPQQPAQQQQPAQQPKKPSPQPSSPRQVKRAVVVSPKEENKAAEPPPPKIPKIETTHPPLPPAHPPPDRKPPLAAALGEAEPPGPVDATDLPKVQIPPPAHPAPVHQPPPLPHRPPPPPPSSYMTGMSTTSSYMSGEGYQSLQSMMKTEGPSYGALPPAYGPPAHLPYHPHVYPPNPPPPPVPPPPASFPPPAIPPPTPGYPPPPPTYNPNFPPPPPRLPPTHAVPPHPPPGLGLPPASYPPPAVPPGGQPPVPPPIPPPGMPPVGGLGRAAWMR
The procedure:
(§1) Active FGFR1–4, VEGFR1, KDR, VEGFR3, PDGFRα and PDGFRβ proteins were purchased from Eurofins (Fremont, United States), and kinase activity was assessed using ELISA, as previously reported. The broader kinase selectivity profile of 3D185 (0.01, 0.1, and 1 μM) was determined by Eurofins by screening the compound against 372 human recombinant kinases. Increasing concentrations of ATP were diluted for the kinase reaction in the ATP competition assay. CSF-1R kinase activity was analyzed using the Z’-LYTE™ Kinase Assay Kit (Thermo Fisher, United States). The assay formats are described in the SelectScreen Kinase Profiling Service Zlyte protocol. IC50 values were calculated by dose-response curve fitting using Prism (Graph Pad).

The target of assay [7] is T7, PRP4(h) (Homo sapiens, UniProt Q13523).
T7 construct: purchased Eurofins (KinaseProfiler)
T7 sequence (Q13523 whole entry): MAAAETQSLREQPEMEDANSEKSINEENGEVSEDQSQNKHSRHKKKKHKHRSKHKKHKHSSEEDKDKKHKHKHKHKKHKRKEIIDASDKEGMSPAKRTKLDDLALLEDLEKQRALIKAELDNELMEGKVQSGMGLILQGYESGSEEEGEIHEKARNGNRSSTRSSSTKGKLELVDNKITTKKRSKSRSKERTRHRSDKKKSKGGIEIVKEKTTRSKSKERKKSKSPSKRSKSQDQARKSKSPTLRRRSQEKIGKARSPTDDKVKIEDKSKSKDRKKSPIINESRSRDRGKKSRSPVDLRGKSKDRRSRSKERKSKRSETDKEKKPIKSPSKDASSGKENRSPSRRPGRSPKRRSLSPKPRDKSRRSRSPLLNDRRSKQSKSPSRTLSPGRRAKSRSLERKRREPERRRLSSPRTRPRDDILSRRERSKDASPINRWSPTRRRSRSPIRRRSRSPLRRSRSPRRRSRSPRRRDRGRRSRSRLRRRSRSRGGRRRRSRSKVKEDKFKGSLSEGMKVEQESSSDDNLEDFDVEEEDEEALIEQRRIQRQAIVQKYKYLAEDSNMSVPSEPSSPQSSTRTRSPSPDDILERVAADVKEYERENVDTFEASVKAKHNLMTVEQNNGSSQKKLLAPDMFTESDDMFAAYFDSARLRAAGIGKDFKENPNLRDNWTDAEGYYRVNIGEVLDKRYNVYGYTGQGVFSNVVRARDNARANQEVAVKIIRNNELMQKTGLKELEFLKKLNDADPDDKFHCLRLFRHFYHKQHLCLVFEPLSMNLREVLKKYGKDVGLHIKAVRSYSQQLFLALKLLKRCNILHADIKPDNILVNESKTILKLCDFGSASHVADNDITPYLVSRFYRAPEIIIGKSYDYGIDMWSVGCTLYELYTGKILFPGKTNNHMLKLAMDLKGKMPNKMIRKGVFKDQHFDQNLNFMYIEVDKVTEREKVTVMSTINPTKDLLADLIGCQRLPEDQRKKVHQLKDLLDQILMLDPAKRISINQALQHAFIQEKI
The procedure:
as §1

Broadly, the inhibition is the relative decrease from the control value, in per cent.

T1 sequence (P50613 whole entry): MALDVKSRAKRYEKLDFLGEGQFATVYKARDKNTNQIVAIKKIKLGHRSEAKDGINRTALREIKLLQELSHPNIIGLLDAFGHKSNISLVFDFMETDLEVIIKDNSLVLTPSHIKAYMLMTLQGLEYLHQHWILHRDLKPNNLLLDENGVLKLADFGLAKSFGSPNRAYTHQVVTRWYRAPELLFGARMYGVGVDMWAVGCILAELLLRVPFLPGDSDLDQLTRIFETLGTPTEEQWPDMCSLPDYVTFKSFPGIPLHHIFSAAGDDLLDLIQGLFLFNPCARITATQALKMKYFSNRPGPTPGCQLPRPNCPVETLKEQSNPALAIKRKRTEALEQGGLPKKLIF
T1 sequence (P51946 whole entry partner): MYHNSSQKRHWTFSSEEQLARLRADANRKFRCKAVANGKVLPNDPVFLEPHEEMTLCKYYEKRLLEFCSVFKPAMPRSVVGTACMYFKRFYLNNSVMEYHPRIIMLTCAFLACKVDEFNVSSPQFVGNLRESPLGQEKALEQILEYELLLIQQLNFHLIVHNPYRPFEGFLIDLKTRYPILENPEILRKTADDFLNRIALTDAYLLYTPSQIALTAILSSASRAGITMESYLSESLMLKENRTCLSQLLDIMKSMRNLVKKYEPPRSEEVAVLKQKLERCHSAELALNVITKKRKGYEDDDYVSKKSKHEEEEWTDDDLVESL
T1 sequence (P51948 whole entry partner): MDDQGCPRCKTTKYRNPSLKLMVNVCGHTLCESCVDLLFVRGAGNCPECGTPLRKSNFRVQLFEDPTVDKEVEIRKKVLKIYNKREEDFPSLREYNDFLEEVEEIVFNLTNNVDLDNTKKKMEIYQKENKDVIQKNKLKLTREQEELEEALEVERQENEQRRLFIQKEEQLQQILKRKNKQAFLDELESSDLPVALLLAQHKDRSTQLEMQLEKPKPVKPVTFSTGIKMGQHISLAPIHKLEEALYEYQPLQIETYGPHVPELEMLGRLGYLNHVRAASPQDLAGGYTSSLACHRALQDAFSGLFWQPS

Consider `COc1cc(OC)c(Cl)c(-c2ccc3c(NC(=O)c4ccc(N5CCNC(C)(C)C5)cc4)n[nH]c3n2)c1Cl` [3D185], for which the inhibition at 0.01 µM in assay [1] (10 nM) is 12%; in assay [2] (10 nM), -15%; in assay [3] (10 nM), -2%; in assay [4] (10 nM), 3%; in assay [5] (10 nM), 2%; in assay [6] (10 nM), -16%. In addition, in assay [7] (10 nM), the inhibition at 0.01 µM is -8%. The inhibition at 0.1 µM is 11% in assay [1] (100 nM); 1% in assay [2] (100 nM); 6% in assay [3] (100 nM); 2% in assay [4] (100 nM); 9% in assay [5] (100 nM); 8% in assay [6] (100 nM). For the same molecule, the inhibition at 0.1 µM in assay [7] (100 nM) was -9%. Moreover, the inhibition at 1 µM in assay [1] (1000 nM) was found to be 11%; in assay [2] (1000 nM) it was 10%; in assay [3] (1000 nM) it was 21%; in assay [4] (1000 nM), 14%; in assay [5] (1000 nM), 16%; in assay [6] (1000 nM), 1%. Also, the inhibition at 1 µM in assay [7] (1000 nM) is -1%.

(Values after PMC6704710, “Preclinical evaluation of 3D185, a novel potent inhibitor of FGFR1/2/3 and CSF-1R, in FGFR-dependent and macrophage-dominant cancer models” (Journal of Experimental & Clinical Cancer Research : CR, 2019).)
